Assay results: PubChem BioAssay AID2060492 (Molecular Pharmacology Branch, DTP, NCI, 2025)

Test system: 695427-040-R-J1-PDC complex spheroids, viability percent T/C
Assay: Anticancer human tumor 695427-040-R-J1-PDC patient-derived colon adenocarcinoma cell line growth inhibition [GQUAD]
Conditions: for IC50: curve of first compound; for viability, T/C: stronger effect = lower value
Description: DNA G-quadruplex Stabilizer Agents in Combinations in Complex Spheroids
A high-throughput screen of multi-cell type tumor spheroids was designed to identify active combinations of DNA G-quadruplex stabilizer agents and targeted small molecules. Complex spheroids include a stromal component modeled by human endothelial cells (HUVEC) and fibroblasts modeled by human mesenchymal stem cells (MSCs). The concentration ranges selected for each drug and investigational agent were based upon clinically achievable concentrations if the clinical Cmax of the agent was known.
Compounds. The drugs and investigational agents: pidnarulex (CX-5461; NSC782164), APTO-253 (NSC789042), BRACO-19 (NSC847499), peposertib (NSC802822), ceralasertib (NSC780249), elimusertib (NSC800525), camonsertib (NSC841442), AZD-1390 (NSC803789), olaparib (NSC753686), talazoparib (NSC767125), ART-558 (NSC835418), sotorasib (NSC818433), MRTX-1133 (NSC836407), SN-38 (NSC673596), topotecan (NSC609699), etoposide (NSC141540), doxorubicin (NSC123127), gemcitabine (NSC613327), 5-fluorouracil (NSC19893), paclitaxel (NSC125973), vemurafenib (NSC761431), panobinostat (NSC761190), R-306465 (JNJ-16241199; NSC773264), adavosertib (NSC754352), TP-3654 (NSC805149), carboplatin (NSC241240), KSQ-4279 (NSC840948), and staurosporine (NSC755774) were obtained from the National Cancer Institute (NCI) Developmental Therapeutics Program Chemical Repository (34). The FDA-approved anticancer drug set is available from the NCI Developmental Therapeutics Program. […] The stock solutions were prepared in dimethyl sulfoxide (DMSO, Sigma-Aldrich, St. Louis, MO, cat. D2650) at 800-fold the tested concentration and stored at -70 degrees C prior to their use. All drugs and investigational agents were tested over a range starting from a high concentration at or near the clinical Cmax and decreasing in half-log increments. If the clinical Cmax for an agent had not been determined, the highest concentration tested was 10 microM.
2.3 Cell Culture. All cells were maintained in an incubator at 37 degrees C and 5% CO2 with 95% humidity. The PDC lines were cultured according to standard operating procedures established by the NCI PDMR. All PDCs were thawed and cultured in Matrigel-coated flasks prepared with a working solution of 1X Ham's F-12 nutrient mix, without supplementation (Invitrogen, cat. 11765054), 100 U/mL penicillin-streptomycin (Invitrogen, cat. 15140122), and 2.5% Matrigel (Corning Inc., cat. 354248) for the first three passages. The 857933-349-R-J2-PDC line was cultured in 6C/Colon 1B media, which includes advanced DMEM/F-12 (Thermo Fisher Scientific, cat. 12634028), 10 mM HEPES (Thermo Fisher Scientific, cat. 15630080), 1X GlutaMAX supplement (Thermo Fisher Scientific, cat. 35050061), 0.1 mg/mL primocin (InvivoGen, cat. ant-pm-2), 10% defined fetal bovine serum, heat inactivated (HyClone Laboratories Inc., cat. SH30070.03HI), 50% L-WRN conditioned media (ATCC, cat. CRL-3276), 1.25 mM N-Acetyl-L-cysteine (Sigma-Aldrich, cat. A9165), 10 mM nicotinamide (Sigma-Aldrich, cat. N0636), 1X B-27 supplement (Thermo Fisher Scientific, cat. 17504044), 1X N-2 supplement (Thermo Fisher Scientific, cat. 17502048), 10 microM Y-27632 dihydrochloride (Tocris Bioscience, cat. 1254), and 50 ng/mL human EGF recombinant protein (Thermo Fisher Scientific, cat. PHG0311). The 485176-168-R4-J1-PDC line was cultured in Panc media, which includes all 6C/Colon 1B media components plus 100 ng/mL human FGF-10 (Thermo Fisher Scientific, cat. 100-26), 500 nM SB-431542 (Selleckchem, cat. S1067), and gastrin (Tocris, cat. 3006).
[…]
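Further: spheroids exposed to compounds for seven days before readout.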

Structure (SMILES): CC1COCCN1c1cc(-c2ccnn2C)c2ccnc(-c3ccn[nH]3)c2n1 (configuration not stated) + CN(C)c1ccc(Nc2c3ccc(NC(=O)CCN4CCCC4)cc3nc3cc(NC(=O)CCN4CCCC4)ccc23)cc1
- IC50 (second compound 0.0316 µM): 1.25 µM
- IC50 (second compound 0.1 µM): 1.36 µM
- IC50 (second compound 0.316 µM): 1.24 µM
- IC50 (second compound 1 µM): 0.942 µM
- IC50 (second compound 3.16 µM): 0.749 µM
- IC50 (second compound 10 µM): 0.454 µM
- viability, T/C (second compound 0.0316 µM, first compound 0.0316 µM): 95.2%
- viability, T/C (second compound 0.0316 µM, first compound 0.1 µM): 78.8%
- viability, T/C (second compound 0.0316 µM, first compound 0.316 µM): 63%
- viability, T/C (second compound 0.0316 µM, first compound 1 µM): 51%
- viability, T/C (second compound 0.0316 µM, first compound 3.16 µM): 44.9%
- viability, T/C (second compound 0.0316 µM, first compound 10 µM): 39.4%
- viability, T/C (second compound 0.1 µM, first compound 0.0316 µM): 100%
- viability, T/C (second compound 0.1 µM, first compound 0.1 µM): 75.9%
- viability, T/C (second compound 0.1 µM, first compound 0.316 µM): 63.9%
- viability, T/C (second compound 0.1 µM, first compound 1 µM): 52%
- viability, T/C (second compound 0.1 µM, first compound 3.16 µM): 45.3%
- viability, T/C (second compound 0.1 µM, first compound 10 µM): 39.1%
- viability, T/C (second compound 0.316 µM, first compound 0.0316 µM): 87.7%
- viability, T/C (second compound 0.316 µM, first compound 0.1 µM): 76.3%
- viability, T/C (second compound 0.316 µM, first compound 0.316 µM): 56.3%
- viability, T/C (second compound 0.316 µM, first compound 1 µM): 49.3%
- viability, T/C (second compound 0.316 µM, first compound 3.16 µM): 46.8%
- viability, T/C (second compound 0.316 µM, first compound 10 µM): 42.4%
- viability, T/C (second compound 1 µM, first compound 0.0316 µM): 96.7%
- viability, T/C (second compound 1 µM, first compound 0.1 µM): 81.9%
- viability, T/C (second compound 1 µM, first compound 0.316 µM): 60.3%
- viability, T/C (second compound 1 µM, first compound 1 µM): 49.7%
- viability, T/C (second compound 1 µM, first compound 3.16 µM): 45.9%
- viability, T/C (second compound 1 µM, first compound 10 µM): 39.1%
- viability, T/C (second compound 3.16 µM, first compound 0.0316 µM): 89.3%
- viability, T/C (second compound 3.16 µM, first compound 0.1 µM): 74.5%
- viability, T/C (second compound 3.16 µM, first compound 0.316 µM): 55.5%
- viability, T/C (second compound 3.16 µM, first compound 1 µM): 48.9%
- viability, T/C (second compound 3.16 µM, first compound 3.16 µM): 43.8%
- viability, T/C (second compound 3.16 µM, first compound 10 µM): 39.9%
- viability, T/C (second compound 10 µM, first compound 0.0316 µM): 86%
- viability, T/C (second compound 10 µM, first compound 0.1 µM): 66.1%
- viability, T/C (second compound 10 µM, first compound 0.316 µM): 50.5%
- viability, T/C (second compound 10 µM, first compound 1 µM): 46.8%
- viability, T/C (second compound 10 µM, first compound 3.16 µM): 40.2%
- viability, T/C (second compound 10 µM, first compound 10 µM): 37%
